# System: glucagon
# Assay: Hypoglycemic clamp: plasma glucagon levels
# Assay type: in vivo, human
# Details: for Glucagon levels, Change from baseline, Mean (SD) / Glucagon levels, Change from baseline, Median (Min, Max) / Glucagon levels, Observed value, Mean (SD) / Glucagon levels, Observed value, Median (Min, Max): C-peptide undetectable
# Method: In order to evaluate the counterregulatory hormone response to hypoglycemia, a hypoglycemic clamp will be performed. The Hypoglycemic Clamp must be performed according to the instructions in the Operations Manual. (Appendix 3)
# The patient should: • Come to the study site following an overnight fast (>10 hours), i.e. the patient may not eat but is permitted to drink water • Not have taken the Remygen and, if applicable, Alprazolam dose in the morning • Not take short acting/direct acting insulin within 6 hours before the investigation. • The patient is allowed to take base-insulin day/night before, but not in the morning before the investigation.
# Patients with CSII (insulin pump) must continue with their basal dose insulin, but not add bolus dose during the last 6 hours before the investigation.
# If a patient has a blood sugar level <4 mmol/L in the morning of the scheduled visit, the patient is allowed to take dextrose tablets and then come to the study site. The patient is allowed to perform the investigation if the blood sugar level is >4 mmol/L.
# In the dose-escalation part of the study, the patient will take study drug 30 min prior to start of the hypoglycemic clamp. In the main study, the study drug will instead be taken after finalization of the hypoglycemic clamp. Baseline blood samples will be obtained for glucose, glucagon, epinephrine, norepinephrine, growth hormone and cortisol. The clamp will then be initiated by an intravenous insulin infusion at a rate of 2 mU×kg^−1×min^−1. Glucose 100 mg/ml will then be administered in variable infusion rates to clamp the blood glucose concentration at 5.5 mmol/land then at 2.5 mmol/land kept stable for 30 min. Blood glucose will be evaluated repeatedly in order to find the optimal glucose infusion rate. Blood sampling to determined levels of counterregulatory hormones as described above will be performed at each of these target levels when a stable glucose concentration has been reached. The insulin infusion will thereafter be terminated and the patient is allowed to eat and will be observed until normoglycemia is achieved. If necessary, additional glucose administration will be given to allow blood glucose concentrations to normalize.
# Plasma glucose was first lowered to normoglycemic levels (5.5 mmol/L) and hormone levels monitored, and then to hypoglycemic levels (2.5 mmol/L) and hormone levels monitored. Difference was calculated as a measurement of the response to hypoglycemia.
# [1] = Visit 5, 200 mg GABA per day, Event 2.5 mmol/L
# [2] = Visit 5, 200 mg GABA per day, Event 5.5 mmol/L
# [3] = Visit 5, 200 mg GABA per day, Event Baseline
# [4] = Visit 5, 200 mg GABA per day, Event Diff 2.5-5.5 mmol/L
# [5] = Visit 7, 600 mg GABA per day, Event 2.5 mmol/L
# [6] = Visit 7, 600 mg GABA per day, Event 5.5 mmol/L
# [7] = Visit 7, 600 mg GABA per day, Event Baseline
# [8] = Visit 7, 600 mg GABA per day, Event Diff 2.5-5.5 mmol/L
# [9] = Visit 9, 1200 mg GABA per day, Event 2.5 mmol/L
# [10] = Visit 9, 1200 mg GABA per day, Event 5.5 mmol/L
# [11] = Visit 9, 1200 mg GABA per day, Event Baseline
# [12] = Visit 9, 1200 mg GABA per day, Event Diff 2.5-5.5 mmol/L
smiles,measurement,setting,value
"NCCCC(=O)O [GABA, Gamma-amino butyric acid]","Glucagon levels, Change from baseline, Mean (SD)",[1],2.12 pmol/L
same,"Glucagon levels, Change from baseline, Median (Min, Max)",[1],1.60 pmol/L
same,"Glucagon levels, Observed value, Mean (SD)",[1],4.88 (2.44) pmol/L
same,"Glucagon levels, Observed value, Median (Min, Max)",[1],4.80 pmol/L
same,"Glucagon levels, Change from baseline, Mean (SD)",[2],-0.11 pmol/L
same,"Glucagon levels, Change from baseline, Median (Min, Max)",[2],0.00 pmol/L
same,"Glucagon levels, Observed value, Mean (SD)",[2],2.08 (1.33) pmol/L
same,"Glucagon levels, Observed value, Median (Min, Max)",[2],2.20 pmol/L
same,"Glucagon levels, Change from baseline, Mean (SD)",[3],0.46 pmol/L
same,"Glucagon levels, Change from baseline, Median (Min, Max)",[3],0.60 pmol/L
same,"Glucagon levels, Observed value, Mean (SD)",[3],3.92 (1.03) pmol/L
same,"Glucagon levels, Observed value, Median (Min, Max)",[3],3.60 pmol/L
same,"Glucagon levels, Change from baseline, Mean (SD)",[4],2.23 pmol/L
same,"Glucagon levels, Change from baseline, Median (Min, Max)",[4],1.85 pmol/L
same,"Glucagon levels, Observed value, Mean (SD)",[4],2.80 (2.07) pmol/L
same,"Glucagon levels, Observed value, Median (Min, Max)",[4],2.60 pmol/L
same,"Glucagon levels, Change from baseline, Mean (SD)",[5],1.64 pmol/L
same,"Glucagon levels, Change from baseline, Median (Min, Max)",[5],1.40 pmol/L
same,"Glucagon levels, Observed value, Median (Min, Max)",[5],4.20 pmol/L
same,"Glucagon levels, Change from baseline, Mean (SD)",[6],-0.66 pmol/L
same,"Glucagon levels, Change from baseline, Median (Min, Max)",[6],-0.60 pmol/L
same,"Glucagon levels, Observed value, Mean (SD)",[6],1.53 (1.32) pmol/L
same,"Glucagon levels, Observed value, Median (Min, Max)",[6],0.75 pmol/L
same,"Glucagon levels, Change from baseline, Mean (SD)",[7],-0.42 pmol/L
same,"Glucagon levels, Change from baseline, Median (Min, Max)",[7],-0.70 pmol/L
same,"Glucagon levels, Observed value, Mean (SD)",[7],3.04 (0.66) pmol/L
same,"Glucagon levels, Observed value, Median (Min, Max)",[7],3.10 pmol/L
same,"Glucagon levels, Change from baseline, Mean (SD)",[8],2.30 pmol/L
same,"Glucagon levels, Change from baseline, Median (Min, Max)",[8],2.10 pmol/L
same,"Glucagon levels, Observed value, Mean (SD)",[8],2.87 (1.96) pmol/L
same,"Glucagon levels, Observed value, Median (Min, Max)",[8],2.95 pmol/L
same,"Glucagon levels, Change from baseline, Mean (SD)",[9],3.16 pmol/L
same,"Glucagon levels, Change from baseline, Median (Min, Max)",[9],3.30 pmol/L
same,"Glucagon levels, Observed value, Mean (SD)",[9],5.92 (3.70) pmol/L
same,"Glucagon levels, Observed value, Median (Min, Max)",[9],5.60 pmol/L
same,"Glucagon levels, Change from baseline, Mean (SD)",[10],-0.58 pmol/L
same,"Glucagon levels, Change from baseline, Median (Min, Max)",[10],-0.80 pmol/L
same,"Glucagon levels, Observed value, Mean (SD)",[10],1.61 (1.18) pmol/L
same,"Glucagon levels, Observed value, Median (Min, Max)",[10],0.75 pmol/L
same,"Glucagon levels, Change from baseline, Mean (SD)",[11],0.96 pmol/L
same,"Glucagon levels, Change from baseline, Median (Min, Max)",[11],0.50 pmol/L
same,"Glucagon levels, Observed value, Median (Min, Max)",[11],3.90 pmol/L
same,"Glucagon levels, Change from baseline, Mean (SD)",[12],3.74 pmol/L
same,"Glucagon levels, Change from baseline, Median (Min, Max)",[12],3.30 pmol/L
same,"Glucagon levels, Observed value, Mean (SD)",[12],4.31 (4.33) pmol/L
same,"Glucagon levels, Observed value, Median (Min, Max)",[12],2.60 pmol/L
same,"Counter regulatory response of Glucagon, effect of GABA treatment",change in levels when clamping to 2.5 mmol/L from 5.5 mmol/L,increased
same,"Normoglycemic levels of Glucagon, effect of GABA treatment",clamped to 5.5 mmol/L,decrease
